Reference: US12516039B2, “N-linked isoquinoline amides as LRRK2 inhibitors, pharmaceutical compositions, and uses thereof” (Merck Sharp & Dohme LLC, priority 2020, dated 2026)

Target: T1, GST-tagged truncated human mutant G2019S LRRK2 (Homo sapiens, UniProt Q5S007, G2019S)
T1 construct: GST-tagged truncated human mutant G2019S LRRK2; purchased Life Technologies Corporation (Carlsbad, CA)
Assay: LRRK2 G2019S Km ATP LanthaScreen assay
Type: biochemical
Settings: 134 μM ATP (Km ATP), LRRKtide substrate, mean of several tests, read-out: LRRK2 pIC50 (converted)
Description: Unless otherwise noted, all reactions are magnetically stirred. Unless otherwise noted, when diethyl ether is used in the experiments described below, it is Fisher ACS certified material and is stabilized with BHT. Unless otherwise noted, “concentrated” and/or “solvent removed under reduced pressure” means evaporating the solvent from a solution or mixture using a rotary evaporator or vacuum pump. Unless otherwise noted, flash chromatography is carried out on a Teledyne Isco (Lincoln, NE), Analogix (Burlington, WI), or Biotage (Stockholm, SWE) automated chromatography system using a commercially available cartridge as the column. Columns may be purchased from Teledyne Isco, Analogix, Biotage, Varian (Palo Alto, CA), or Supelco (Bellefonte, PA) and are usually filled with silica gel as the stationary phase. Reverse phase prep-HPLC conditions, where used, can be found at the end of each experimental section. Aqueous solutions were concentrated on a Genevac (Ipswich, ENG) or by freeze-drying/lyophilization. Unless otherwise noted, all LRRK2 pIC50 data presented in tables refers to the LRRK2 G2019S Km ATP LanthaScreen™ assay (Life Technologies Corp., Carlsbad, CA) that is described in the Biological Assay section.
Biological Assay: LRRK2 Km ATP LanthaScreen™ Assay
The LRRK2 kinase activity reported herein as IC50 values was determined with LanthaScreen™ technology from Life Technologies Corporation (Carlsbad, CA) using GST-tagged truncated human mutant G2019S LRRK2 in the presence of the fluorescein-labeled peptide substrate LRRKtide, also from Life Technologies. The data presented for the Km ATP LanthaScreen™ Assay represents mean IC50 values based on several test results and may have reasonable deviations depending on the specific conditions and reagents used. Assays were performed in the presence of 134 μM ATP (Km ATP). Upon completion, the assay was stopped and phosphorylated substrate detected with a terbium (Tb)-labeled anti-pERM antibody (cat. no. PV4898). The compound dose response was prepared by diluting a 10 mM stock of compound to a maximum concentration of 9.99 μM in 100% dimethylsulfoxide followed by custom fold serial dilution in dimethylsulfoxide nine times. Twenty nanoliters of each dilution was spotted via a Labcyte Echo onto a 384-well black-sided plate (Corning 3575) followed by 15 μl of a 1.25 nM enzyme solution in 1× assay buffer (50 mM Tris pH 8.5, 10 mM MgCl2, 0.01% Brij-35, 1 mM EGTA, 2 mM dithiothreitol, 0.05 mM sodium orthovanadate). Following a 15-minute incubation at room temperature, the kinase reaction was started with the addition of 5 μl of 400 nM fluorescein-labeled LRRKtide peptide substrate and 134 μM ATP solution in 1× assay buffer. The reaction was allowed to progress at ambient temperature for 90 minutes. The reaction was then stopped by the addition of 20 μl of TR-FRET Dilution Buffer (Life Technologies, Carlsbad, CA) containing 2 nM Tb-labeled anti-phospho LRRKtide antibody and 10 mM EDTA (Life Technologies, Carlsbad, CA). After an incubation of 1 hour at room temperature, the plate was read on an EnVision multimode plate reader (Perkin Elmer, Waltham, MA) with an excitation wavelength of 337 nm (Laser) and a reading emission at both 520 and 495 nm. Compound IC50s were interpolated from nonlinear regression best fits of the log of the final compound concentration, plotted as a function of the 520/495-nm emission ratio using Activity base. Abase uses a 4 parameter (4P) logistic fit based on the Levenberg-Marquardt algorithm.

T1 sequence (Q5S007 970-2527 G2019S limits assumed): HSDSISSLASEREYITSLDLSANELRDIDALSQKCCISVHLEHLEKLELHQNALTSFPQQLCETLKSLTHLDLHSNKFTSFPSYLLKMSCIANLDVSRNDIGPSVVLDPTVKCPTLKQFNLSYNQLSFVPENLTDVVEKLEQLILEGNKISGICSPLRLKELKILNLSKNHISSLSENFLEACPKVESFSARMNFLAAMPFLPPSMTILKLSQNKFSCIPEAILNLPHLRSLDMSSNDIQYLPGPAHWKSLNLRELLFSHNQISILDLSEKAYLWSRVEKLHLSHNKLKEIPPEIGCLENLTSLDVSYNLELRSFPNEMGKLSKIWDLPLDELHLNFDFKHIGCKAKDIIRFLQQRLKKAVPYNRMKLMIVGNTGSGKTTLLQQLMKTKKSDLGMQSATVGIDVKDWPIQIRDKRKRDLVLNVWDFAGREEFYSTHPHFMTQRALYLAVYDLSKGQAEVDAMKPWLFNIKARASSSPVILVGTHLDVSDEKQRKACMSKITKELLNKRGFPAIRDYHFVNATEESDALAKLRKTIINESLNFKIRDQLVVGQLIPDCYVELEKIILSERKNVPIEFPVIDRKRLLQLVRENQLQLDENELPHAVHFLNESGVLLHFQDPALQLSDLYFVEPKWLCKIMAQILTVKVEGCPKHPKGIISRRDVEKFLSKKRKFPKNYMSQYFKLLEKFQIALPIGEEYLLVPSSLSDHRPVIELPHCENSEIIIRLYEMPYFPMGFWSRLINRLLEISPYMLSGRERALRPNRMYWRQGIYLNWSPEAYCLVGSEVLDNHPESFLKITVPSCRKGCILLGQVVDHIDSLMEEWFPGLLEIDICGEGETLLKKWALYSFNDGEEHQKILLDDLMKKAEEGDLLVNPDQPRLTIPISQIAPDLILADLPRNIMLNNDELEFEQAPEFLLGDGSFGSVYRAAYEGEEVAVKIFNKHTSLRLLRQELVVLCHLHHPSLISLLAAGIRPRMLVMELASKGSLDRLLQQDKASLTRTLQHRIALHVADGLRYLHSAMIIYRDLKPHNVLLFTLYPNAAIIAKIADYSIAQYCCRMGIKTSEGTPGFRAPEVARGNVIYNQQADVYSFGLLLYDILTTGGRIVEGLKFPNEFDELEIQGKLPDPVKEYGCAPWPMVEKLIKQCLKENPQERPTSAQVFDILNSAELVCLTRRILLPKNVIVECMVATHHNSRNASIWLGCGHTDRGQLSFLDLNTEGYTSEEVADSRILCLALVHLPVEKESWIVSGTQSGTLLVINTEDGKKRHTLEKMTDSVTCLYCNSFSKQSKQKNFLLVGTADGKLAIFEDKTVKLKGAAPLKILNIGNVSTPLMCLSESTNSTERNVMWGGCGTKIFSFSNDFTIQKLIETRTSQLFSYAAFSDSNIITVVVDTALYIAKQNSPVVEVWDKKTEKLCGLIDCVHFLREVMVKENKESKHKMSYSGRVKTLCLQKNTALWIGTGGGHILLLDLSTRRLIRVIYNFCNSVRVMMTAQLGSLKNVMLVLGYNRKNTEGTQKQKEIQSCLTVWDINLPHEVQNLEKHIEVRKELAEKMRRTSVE

| Structure (SMILES) | IC50 [nM] |
| --- | --- |
| CC1(N2CCN(c3cc4cc(NC(=O)C5CC56CCOC6)ncc4cc3Cl)CC2)COCC1O (single isomer, unassigned) [Ex-2.11, (1R,3R or 1S,3S)-N-(7-chloro-6-(4-((3R,4R or 3S,4S)-4-hydroxy-3-methyltetrahydrofuran-3-yl)piperazin-1-yl)isoquinolin-3-yl)-5-oxaspiro[2.4]heptane-1-carboxamide] | 1.45 |
| CC1(N2CCN(c3cc4cc(NC(=O)C5CC56CC6)ncc4cc3Cl)CC2)COCC1O (single isomer, unassigned) [Ex-2.12, (R or S)-N-(7-chloro-6-(4-((3R,4R or 3S,4S)-4-hydroxy-3-methyltetrahydrofuran-3-yl)piperazin-1-yl)isoquinolin-3-yl)spiro[2.2]pentane-1-carboxamide] | 0.513 |
| CC1(N2CCN(c3cc4cc(NC(=O)C5CC56CC6)ncc4cc3Cl)CC2)COCC1O (single isomer, unassigned) [Ex-2.13, (R or S)-N-(7-chloro-6-(4-((3R,4R or 3S,4S)-4-hydroxy-3-methyltetrahydrofuran-3-yl)piperazin-1-yl)isoquinolin-3-yl)spiro[2.2]pentane-1-carboxamide] | 33.9 |
| CC1(N2CCN(c3cc4cc(NC(=O)C5CC56CC6)ncc4cc3Cl)CC2)COCC1O (single isomer, unassigned) [Ex-2.14, (R or S)-N-(7-chloro-6-(4-((3R,4R or 3S,4S)-4-hydroxy-3-methyltetrahydrofuran-3-yl)piperazin-1-yl)isoquinolin-3-yl)spiro[2.2]pentane-1-carboxamide] | 0.468 |
| CC1(N2CCN(c3cc4cc(NC(=O)C5CC56CC6)ncc4cc3Cl)CC2)COCC1O (single isomer, unassigned) [Ex-2.15, (R or S)-N-(7-chloro-6-(4-((3R,4R or 3S,4S)-4-hydroxy-3-methyltetrahydrofuran-3-yl)piperazin-1-yl)isoquinolin-3-yl)spiro[2.2]pentane-1-carboxamide] | 30.2 |
| CC1(N2CCN(c3cc4cc(NC(=O)C5CC56CC6(F)F)ncc4cc3Cl)CC2)COCC1O (single isomer, unassigned) [Ex-2.16, (1R,3R or 1S,3S)-N-(7-chloro-6-(4-((3R,4R or 3S,4S)-4-hydroxy-3-methyltetrahydrofuran-3-yl)piperazin-1-yl)isoquinolin-3-yl)-4,4-difluorospiro[2.2]pentane-1-carboxamide] | 0.813 |
| CC1(N2CCN(c3cc4cc(NC(=O)C5CC6(CC6)C5)ncc4cc3Cl)CC2)COCC1O (single isomer, unassigned) [Ex-2.17, N-(7-chloro-6-(4-((3R,4R or 3S,4S)-4-hydroxy-3-methyltetrahydrofuran-3-yl)piperazin-1-yl)isoquinolin-3-yl)spiro[2.3]hexane-5-carboxamide] | 0.955 |
| CC12CC(C(=O)Nc3cc4cc(N5CCN(C6(C)COCC6O)CC5)c(Cl)cc4cn3)(CO1)C2 (single isomer, unassigned) [Ex-2.18, N-(7-chloro-6-(4-((3R,4R or 3S,4S)-4-hydroxy-3-methyltetrahydrofuran-3-yl)piperazin-1-yl)isoquinolin-3-yl)-1-methyl-2-oxabicyclo[2.1.1]hexane-4-carboxamide] | 15.5 |
| CC1(N2CCN(c3cc4cc(NC(=O)C56CC(C5)C6)ncc4cc3Cl)CC2)COCC1O (single isomer, unassigned) [Ex-2.19, N-(7-chloro-6-(4-((3R,4R or 3S,4S)-4-hydroxy-3-methyltetrahydrofuran-3-yl)piperazin-1-yl)isoquinolin-3-yl)bicyclo[1.1.1]pentane-1-carboxamide] | 2.88 |
| C[C@H]1CN(c2cc3cc(NC(=O)C4CC45CCOCC5)ncc3cc2Cl)CCN1C1(C)COCC1O (single isomer, unassigned) [Ex-2.20, (R or S)-N-(7-chloro-6-((S or R)-4-((3R,4R, or 3S,4S)-4-hydroxy-3-methyltetrahydrofuran-3-yl)-3-methylpiperazin-1-yl)isoquinolin-3-yl)-6-oxaspiro[2.5]octane-1-carboxamide] | 0.178 |
| C[C@H]1CN(c2cc3cc(NC(=O)C4CC45CCOCC5)ncc3cc2Cl)CCN1C1(C)COCC1O (single isomer, unassigned) [Ex-2.21, (R or S)-N-(7-chloro-6-((S or R)-4-((3R,4R, or 3S,4S)-4-hydroxy-3-methyltetrahydrofuran-3-yl)-3-methylpiperazin-1-yl)isoquinolin-3-yl)-6-oxaspiro[2.5]octane-1-carboxamide] | 0.589 |
| CCC1(N2CCN(c3cc4cc(NC(=O)C5CC56CCOCC6)ncc4cc3Cl)CC2)COCC1O (single isomer, unassigned) [Ex-2.22, (R or S)-N-(7-chloro-6-(4-((3R,4R or 3S,4S)-3-ethyl-4-hydroxytetrahydrofuran-3-yl)piperazin-1-yl)isoquinolin-3-yl)-6-oxaspiro[2.5]octane-1-carboxamide] | 0.372 |
| CC1(N2CCN(c3cc4cc(NC(=O)C5CC5c5ccccn5)ncc4cc3F)CC2)COCC1O (single isomer, unassigned) [Ex-2.23, (1R,2R or 1S,2S)-N-[7-fluoro-6-[4-[(3R,4R or 3S,4S)-4-hydroxy-3-methyl-tetrahydrofuran-3-yl]piperazin-1-yl]-3-isoquinolyl]-2-(2-pyridyl)cyclopropanecarboxamide] | 0.316 |
| CC1(N2CCN(c3cc4cc(NC(=O)C5CC56CC6(F)F)ncc4cc3Cl)CC2)COCC1O (single isomer, unassigned) [Ex-3.1, (1R,3R or 1R,3S, 1S,3R, 1S,3S)-N-(7-chloro-6-(4-((3R,4R or 3S,4S)-4-hydroxy-3-methyltetrahydrofuran-3-yl)piperazin-1-yl)isoquinolin-3-yl)-4,4-difluorospiro[2.2]pentane-1-carboxamide] | 0.977 |
| CC1(N2CCN(c3cc4cc(NC(=O)C5CC56CC6(F)F)ncc4cc3Cl)CC2)COCC1O (single isomer, unassigned) [Ex-3.2] | 1.07 |
| CC1COC(=O)N1c1ccc2cnc(NC(=O)C3CC3)cc2c1 (single isomer, unassigned) [Ex-4.1, (R or S)-N-(6-(4-methyl-2-oxooxazolidin-3-yl)isoquinolin-3-yl)cyclopropanecarboxamide] | 3.47 |
| O=C(Nc1cc2cc(N3C(=O)C4CCC3C4)ccc2cn1)C1CC1 (single isomer, unassigned) [Ex-5.1] | 9.55 |
| O=C(Nc1cc2cc(N3C(=O)C4CCC3C4)ccc2cn1)C1CC1 (single isomer, unassigned) [Ex-5.2] | 25.7 |
| COC1COCC1(C)N1CCN(c2cc3cc(NC(=O)C4CC45CCOCC5)ncc3cc2Cl)CC1 (single isomer, unassigned) [Ex-5.3] | 0.372 |
| COC1COCC1(C)N1CCN(c2cc3cc(NC(=O)C4CC45CCOCC5)ncc3cc2Cl)CC1 (single isomer, unassigned) [Ex-5.4] | 28.8 |
| COC1COCC1(C)N1CCN(c2cc3cc(NC(=O)C4CC45CCOCC5)ncc3cc2Cl)CC1 (single isomer, unassigned) [Ex-5.5] | 2.63 |
| COC1COCC1(C)N1CCN(c2cc3cc(NC(=O)C4CC45CCOCC5)ncc3cc2Cl)CC1 (single isomer, unassigned) [Ex-5.6] | 316 |
| COC1COCC1N1CCN(c2cc3cc(NC(=O)C4CC45CCOCC5)ncc3cc2Cl)CC1 (single isomer, unassigned) [Ex-5.7] | 2.63 |
| COC1COCC1N1CCN(c2cc3cc(NC(=O)C4CC45CCOCC5)ncc3cc2Cl)CC1 (single isomer, unassigned) [Ex-5.8] | 191 |
| COC1COCC1N1CCN(c2cc3cc(NC(=O)C4CC45CCOCC5)ncc3cc2Cl)CC1 (single isomer, unassigned) [Ex-5.9] | 1510 |
| COC1COCC1N1CCN(c2cc3cc(NC(=O)C4CC45CCOCC5)ncc3cc2Cl)CC1 (single isomer, unassigned) [Ex-5.10] | 38 |
